As a reminder, the IC50 is the point on the concentration scale where inhibition reaches its midpoint.

Experiment [1] deals with NCIH23. The experiment in a line: MTT cell viability assay, NCIH23. In kind it is cell-based, human. To be noted: Homo sapiens, NCI-H23; NCIH23, 48 hrs. On the procedure: (§1) Viability of cancer cell lines after treatment as at the indicated times was determined by MTT assay. Briefly, 10,000 cells were plated in triplicate in 96 well plates and incubated for 24 and 48 hours in complete media in presence of varying dose of mahanine (0-50 μM). 100 ug MTT was added in each well. Incubate the plate for 1-4 hours at 37° C. and humidified 5% CO2 atmosphere. Absorbance was recorded at 550 nm with 96 well plate readers.
(In general: Tetrazolium dyes change colour on reduction, which living cells bring about.)

Experiment [2] concerns Molt-3. In words: MTT cell viability assay, Molt-3. The class given is cell-based, human. Conditions: Homo sapiens; Molt-3, 48 hrs. As to the method:
(§2) Human cervical cancer cell lines (HeLa, ME-180 and SiHa), brain tumor cell lines (U87MG, U373MG, U87MG EGFRvIII, T98G, A172 and LN229), lymphoid leukemia (MOLT-3, MOLT-4, REH and CEMC-7), myloid leukemia (K562), pancreatic cancer (MIAPaCa-2, AsPC-1, Panc-1 and Panc 10.05), lung cancer (A549) and colon cancer (HCT116 and SW480) cell lines from American Type Culture Collection, Manassas, Va., USA were grown in IMDM or RPMI (cell specific) Medium supplemented with 10% fetal bovine serum and 1% antibiotic-antimycotic. Cells were cultured in 37° C. in an atmosphere of 5% CO2.
as §1

Experiment [3] concerns intracellular Ca2+ in MIAPaCa-2. The experiment in a line: Intracellular Ca2+ measurement (Fluo-3/AM). Conditions: MIAPaCa-2, with and without extra-cellular Ca2+. In kind it is cell-based, human. On the procedure: MIAPaCa-2 cells (3×10^6), treated with mahanine, were washed in 1× Hanks Balanced Salt Solution (HBSS) [Gibco, Invitrogen Corporation, USA] and then loaded with Fluo-3/AM (2 μM, Calbiochem, Germany) in HBSS containing 1.26 mM CaCl2. The cells were incubated at 37° C. for 30 min in dark with gentle agitation. All extracellular Fluo-3/AM was removed by two-three times washing in aforesaid buffer. The level of cytoplasmic Ca^2+ within Fluo-3/AM loaded MIAPaCa-2 was determined in time dependent manner in the absence and presence of CaCl2 (1.26 mM CaCl2).

Experiment [4] relates to endoplasmic reticulum (ER) stress in MIAPaCa-2 cells. In words: ER-Tracker Blue-White DPX confocal microscopy. To be noted: MIAPaCa-2, 18 hrs, 10 μM and 20 μM mahanine. In kind it is cell-based, human. On the procedure:
MIAPaCa-2 cells were seeded in 8 chambered polystyrene culture slide [BD Falcon, USA] at […] cells per well in RPMI-1640 medium supplemented with 10% FBS. After 24 hrs of seeding, cells were exposed to different concentration of mahanine along with vehicle control. Cells were washed with 1× Hanks Balanced Salt Solution (HBSS) after 18 hrs of incubation and processed for ER staining. Pre-warmed ER-Tracker Blue White DPX (Molecular Probes) was added to the cells at 500 nM working concentration and incubated for 30 mins at 37° C. at 5% CO2 incubator. The loading solution was removed and cells were then washed again in HBSS and samples were analyzed using confocal laser scanning microscope (NICON A1-R, NICON, Japan). Images were recorded using 60×/1.40 oil plan Apo-N objectives at calibrated magnification.

Experiment [5] has as its system A549. In words: MTT cell viability assay, A549. The class given is cell-based, human. Conditions: Homo sapiens; A549, 48 hrs. On the procedure:
as §2, §1

Experiment [6] deals with Panc10.05. In words: MTT cell viability assay, Panc10.05. In kind it is cell-based, human. Conditions: Homo sapiens, Panc1005; Panc10.05, 48 hrs. On the procedure: as §2, §1
The test system of experiment [7] is HeLa. In words: 7-AAD flow cytometric apoptosis, HeLa. In kind it is cell-based, human. Conditions: 25 μM mahanine.
Description: U87MG, LN229, HeLa, SiHa and ME180 (1×10^6 cells) cells were cultured in 6-well plates in presence or absence of Mahanine (25 μM) for 24 hrs. Cells were washed in PBS, incubated with 7-Aminoactinomycin D (7-AAD) at 4° C. for 20 min and processed. Data acquisition was done on a FACSCalibur flow cytometer (BD) at excitation wavelength at 488 nm and emission wavelength at 647 nm and analyzed with CellQuestPro software.
The test system of experiment [8] is glioma cells (U87MG, U373MG, LN229, A172 and T98G). The experiment in a line: MTT assay, panel of glioma cell lines. In kind it is cell-based, human. Conditions: Homo sapiens, Glioma cell, range over U87MG, 48 hr, read-out: IC50 values against different glioma cell lines. As to the method:
as §2, §1

Experiment [9] has as its system glioma (T98G) and cervical (HeLa) cancer cells. The experiment in a line: Comparative cytotoxicity of mahanine and analogs by MTT. In kind it is cell-based, human. On the procedure: as §2, §1
The target of experiment [10] is Hsp90α (Homo sapiens, UniProt P07900). In words: γ-ATP sepharose binding assay, Hsp90α. To be noted: mahanine at 50 and 100 μM. On the procedure: 5 μg of purified Hsp90α and Hsp90β were pre-incubated separately on ice with 200 μL incubation buffer (10 mM Tris-Hcl, 50 mM KCl, 5 mM MgCl2, 2 mM DTT, 20 mM Na2MoO4, 0.01% NP40, pH 7.5) containing mahanine or 17-AAG and incubated for 30 mins on ice. After the incubation, 25 μL pre-equilibrated γ-phosphate ATP sepharose added and again incubated at 37° C. with frequent agitation.
Sepharose subsequently washed and analyzed by SDS-PAGE. Then the blot was probed with anti Hsp90 antibody and developed by ECL.

In experiment [11] the test system is ME180. The experiment in a line: MTT cell viability assay, ME180. The class given is cell-based. Conditions: Homo sapiens, ME-180, ME180, 48 hr. On the procedure:
as §2, §1

As to `CC(C)=CCCC1(C)C=Cc2c(c(C)cc3c2[nH]c2cc(O)ccc23)O1` (centres unmarked) [Mahanine, mahanine], the IC50 in [1] was 7.08 ± 0.1 µM; in [2], 10.6 ± 0.3 µM; in [5], 12.8 ± 1.1 µM; in experiment [6], 18.5 ± 1.6 µM; in experiment [8] it was 12 to 17 µM; in experiment [11], 14.6 µM. Further, the “time to maximum enhancement of intracellular Ca2+ pool” value in experiment [3] was no more than 15 min. For the same compound, in [4], the “ER-Tracker staining (ER stress)” value is “significantly increased blue staining”. Moreover, the “apoptosis (7-AAD+ve cells)” value in experiment [7] stood at 92.28%. In addition, in experiment [9], the “fold less IC50 of mahanine compared to mahanimbine” value is listed as 2-2.5 fold. Also, the “effect on ATP binding to purified Hsp90” value in experiment [10] was “could not reduce”.

(Values after US8637679B2, “Process for the isolation of organic compounds useful for the treatment of cancer” (Council of Scientific and Industrial Research, priority 2011, dated 2014).)
